The values that follow come from paper PMC8911025, “Design, Synthesis, and Biological Evaluation of New Azulene-Containing Chalcones” (Materials, 2022).

Values after ≈ are worked out from the molar mass of the structure shown.

Assay type in all cases: cell-based
In data set [1] the test system is Escherichia coli ATCC 25922. Put plainly: MIC, binary serial dilution in 96-well plates. To be noted: ATCC25922; Escherichia coli ATCC 25922, 24 h at 37 °C. The procedure: (§1) The antimicrobial activity of all compounds was assessed on Gram-positive bacteria (Staphylococcus aureus ATCC 25923), Gram-negative bacteria (Escherichia coli ATCC 25922, Pseudomonas aeruginosa ATCC 27853), and fungi (Candida parapsilosis ATCC 22019) using quantitative binary serial dilution method in 96-well plates. The negative control was represented by wells with culture medium, while positive control was the microbial strain in broth. Briefly, binary serial dilutions of the compounds performed in 100 μL of broth were seeded with microbial inoculum of 10^6 colony forming units (CFU)/mL and incubated for 24 h at 37 °C. […] Due to the fact that the obtained compounds were colored, after the incubation of the 96-well plates, from each well, 10 µL were seeded on agar plates (Plate Count Agar) to determine the inhibitory concentration. The same value of the inhibitory concentration was obtained in repeated experiments.
(§2) The antibacterial effect of the azulene moiety introduced in the chalcone structure was investigated against Gram-positive (Staphylococcus aureus ATCC 25923) and Gram-negative (Escherichia coli ATCC 25922, Pseudomonas aeruginosa ATCC 27853) bacteria, while the antifungal effect was tested against Candida parapsilosis ATCC 22019. To our knowledge, the antibacterial activity of azulene-containing chalcone compounds has not been reported previously; moreover, this is the first investigation of the biological properties of azulene-containing chalcones in general. The results expressed in terms of minimum inhibitory concentration (MIC) were determined by in vitro screening of the antimicrobial properties using the broth microdilution method and are summarized in Table 5.

Data set [2] concerns Pseudomonas aeruginosa ATCC 27853. Put plainly: MIC, binary serial dilution in 96-well plates. To be noted: ATCC27853; Pseudomonas aeruginosa ATCC 27853, 24 h at 37 °C. The procedure:
as §1, §2

Data set [3] relates to Staphylococcus aureus ATCC 25923. Put plainly: MIC, binary serial dilution in 96-well plates. As to conditions: for MIC: ATCC25923, Staphylococcus aureus ATCC 25923, 24 h at 37 °C; for Aexp: Aexp = 0.1 + log (k/MIC), k = 1.250, compounds synthesized herein. The procedure:
as §1, §2

Data set [4] has as its system Candida parapsilosis ATCC 22019. Put plainly: MIC (antifungal), binary serial dilution in 96-well plates. To be noted: Lodderomyces parapsilosis, ATCC22019; Candida parapsilosis ATCC 22019, 24 h at 37 °C. The procedure:
as §1, §2
We further tested the azulene-containing chalcone compounds for antifungal activity against Candida parapsilosis ATCC 22019.

The subject of a further data set is Candida parapsilosis. Put plainly: Antibiofilm activity (crystal violet, A490). As to conditions: Lodderomyces parapsilosis, biofilm, read-out: MBEC. The procedure:
(§3) The effect of the chalcones on the biofilm formation was evaluated after the determination of the MICs. Briefly, the plates were emptied, washed to remove the nonadherent cells, fixed with methanol, and stained with crystal violet. The antibiofilm activity was determined after adding 33% acetic acid solution by measuring the absorbance at 490 nm, and the results are listed in Table 6.
(§4) The azulene-chalcone derivatives were tested for their ability to affect biofilm formation since 80% of the world’s microbial biomass is found in the biofilm state. The most efficient compound was again chalcone 6 with MBEC of 0.156–0.625 mg/mL (Table 6).

The subject of another data set is Escherichia coli. Put plainly: Antibiofilm activity (crystal violet, A490). As to conditions: biofilm, read-out: MBEC. The procedure: as §3, §4
The subject of a further data set is Pseudomonas aeruginosa. Put plainly: Antibiofilm activity (crystal violet, A490). As to conditions: biofilm, read-out: MBEC. The procedure: as §3, §4
The subject of a further data set is Staphylococcus aureus. Put plainly: Antibiofilm activity (crystal violet, A490). To be noted: biofilm, read-out: MBEC. The procedure:
as §3, §4

A short description of data set [5]: Cell viability assay (CellTiter Glo). As to conditions: human; HEp-2 cells, 48 h, CellTiter Glo; read-out: IC50 (50% cytotoxic concentration). The procedure: (§5) To assess the toxicity of the azulene-containing chalcones, the adherent cell line HEp-2 (American Cell Type Collection [ATCC] CCL-23^TM) was used.
(§6) In order to estimate the cytotoxicity of the compounds, HEp-2 cells (American Cell Type Collection (ATCC) CCL-23) were exposed to the azulene-containing chalcones at concentrations of 200, 100, 50, and 25 μg/mL and evaluated using CellTiter Glo kit (Promega, Madison, WI, USA) assay. The results presented in Figure 3 are expressed as viability percentages versus control.
On the technique in general: ATP-based viability assays read luminescence as a measure of living cells.

A further data set deals with caspase 8. The experiment in a line: Gene expression quantification (qPCR). To be noted: HEp-2, 100 µg/mL, 24 h. The procedure: (§7) The mechanism of azulene-containing chalcone toxicity was assessed by gene expression evaluation. HEp-2 cells were seeded in 6-well plates at a concentration of 3 × 10^5 cells/wells in DMEM:F12 supplemented with 10% FBS. The cells were treated with azulene-containing chalcone at a concentration of 100 µg/mL. After 24 h, the cells were harvested and centrifuged, and the pellet was subjected to total RNA extraction using Trizol reagent (Sigma, St. Louis, MO, USA). The cDNA was produced using 2 µg total RNA and High Capacity Reverse Transcription Kit (Thermo Fisher Scientific, Chelmsford, MA, USA). Fifty nanograms of cDNA was subjected to PCR reaction using Maxima SYBR Green/ROX qPCR Master Mix (Thermo Fisher Scientific, Chelmsford, MA, USA) and Origene primer pairs: caspase 3 (CAT#: HP207674) caspase 7 (CAT#: HP233752), caspase 8 (CAT#: HP234494), caspase 9 (CAT#: HP205155), caspase 10 (CAT#: HP228052). For NOX-4 and NOS2, the following primers were used: NOX 4 forward 5′-[…]-3 and reverse 5′-[…]-3′ and NOS2 forward 5′-[…]-3′ and reverse 5′-[…]-3′. Amplification was completed using StepOne Real-Time PCR System (Thermo Fisher Scientific, Chelmsford, MA, USA). The relative changes in the levels of mRNA expression were quantified by using the 2^−ΔΔCT method.
(§8) Production of procaspase 8 mRNA was inhibited by 7, 9, and 10, with an important role in extrinsic apoptosis induction remaining for caspase 10. Cellular stress induces intrinsic apoptosis by caspase 9 activation that stimulates the caspase cascade, culminating in activation of executioner caspases 3 and 7 [42]. The mRNA expression of caspase 9 was activated following the treatment with 100 µg/mL of compounds 1–8 but inhibited by 9 and 10.
(In general: In qPCR the cycle at which signal appears reflects the starting amount.)

A further data set relates to NOX4. The experiment in a line: Gene expression quantification (qPCR). As to conditions: HEp-2, 100 µg/mL, 24 h. The procedure: as §7
(§9) One of our approaches consisted of the analysis of NOS2 and NOX4 gene expression (Figure 6). […]

The test system of data set [6] is HEp-2 cells. The experiment in a line: Cell cycle analysis (propidium iodide, flow cytometry). The procedure: For cell cycle analysis, a suspension of 7.5 × 10^4 HEp-2 cells was seeded for 24 h in a 1 cm^2 well in DMEM:F12 containing 10% fetal bovine serum. After recovery, the cells were treated with 50 µg/mL or 100 µg/mL azulene-containing chalcone, and 24 h later, the cells were harvested, fixed in cold ethanol overnight, and stained with RNase A/propidium iodide at a concentration of 1 mg/mL to 100 µg/mL. The events were recorded using the Beckman Coulter flow cytometer and analyzed using FlowJo 7.2.5 software.
The cytotoxicity data were also confirmed by cell cycle analysis. Among the tested compounds, chalcone 10 induced an increase in the G2/M phase starting from a concentration of 50 µg/mL (Supplementary Material Figure S2), the effect increasing slightly with the concentration of the tested compound. The increase in the G2/M phase was also observed in the case of compound 9, but at a higher concentration (100 µg/mL), but this effect was lower (Figure 4).
A general note: A flow cytometer gives signals particle by particle.

In another data set the test system is caspase 3. Put plainly: Gene expression quantification (qPCR). To be noted: HEp-2, 100 µg/mL, 24 h. The procedure: as §7
(§10) We observed that the expression of both executioner caspases, caspase 3 (Casp 3), and caspase 7 (Casp 7), was activated by azulene (Figure 5, right). The production of procaspase 3 and 7 mRNA in the case of compounds 9 and 10 was quite reduced, probably correlated with the decreased number of cells.

A further data set relates to caspase 7. Put plainly: Gene expression quantification (qPCR). To be noted: HEp-2, 100 µg/mL, 24 h. The procedure: as §7, §10
Another data set deals with caspase 9. Put plainly: Gene expression quantification (qPCR). As to conditions: HEp-2, 100 µg/mL, 24 h. The procedure:
as §7, §8

The test system of the next data set is NOS2. Put plainly: Gene expression quantification (qPCR). As to conditions: HEp-2, 100 µg/mL, 24 h. The procedure: as §7, §9
Data set [7] has as its system HEp-2 cells. Put plainly: Cell viability assay (CellTiter Glo). To be noted: 25-200 μg/mL. The procedure:
as §5, §6

A further data set concerns biofilm formation. Put plainly: Antibiofilm activity, summary over the tested strains. To be noted: range over the tested strains (Table 6). The procedure: as §3, §4

Broadly, the MIC is the smallest concentration in the dilution series that meets the test's criterion for growth inhibition. A higher MIC goes with a less susceptible organism. Take `O=C(/C=C/c1cc(Cl)c2cccccc1-2)c1ccc2cccccc1-2` [Compound 7, (E)-1-(Azulen-1-yl)-3-(3-chloroazulen-1-yl)prop-2-en-1-one]: the MIC in data set [1] worked out at 625 µg/mL (≈ 1820 µM); in data set [2], 625 µg/mL (≈ 1820 µM); in data set [3], 625 µg/mL (≈ 1820 µM); in [4] it was 312 µg/mL (≈ 910 µM). Besides, the Aexp in data set [3] is on record as 0.401. The minimal effective concentration was 312 µg/mL with Candida parapsilosis, 1250 µg/mL with Escherichia coli, 625 µg/mL in the data set with Pseudomonas aeruginosa and 625 µg/mL with Staphylococcus aureus. Besides, the IC50 at 48 h in data set [5] came out at 42.9 µg/mL (≈ 125 µM). Further, the “procaspase 8 mRNA production” value in the data set on caspase 8 is on record as “inhibited”. Further, the “NOX4 activation (expression)” value in the data set with NOX4 is “minimal”.

For the molecule `Cc1cc(/C=C/C(=O)c2ccc3cccccc2-3)c2cccccc1-2` [Compound 9, (E)-1-(Azulen-1-yl)-3-(3-methylazulen-1-yl)prop-2-en-1-one], the minimal inhibitory concentration (MIC) in [1] was determined as 625 µg/mL (≈ 1940 µM); in data set [2], 625 µg/mL (≈ 1940 µM); in data set [3], 1250 µg/mL (≈ 3880 µM); in data set [4], 312 µg/mL (≈ 968 µM). The Aexp in data set [3] is listed as 0.100. Also, the minimal effective concentration is 312 µg/mL in the data set with Candida parapsilosis, 625 µg/mL with Escherichia coli, 625 µg/mL with Pseudomonas aeruginosa and 625 µg/mL in the data set on Staphylococcus aureus. The IC50 at 48 h in data set [5] was determined as 52.5 µg/mL (≈ 163 µM). Besides, the “effect on G2/M phase” value with HEp-2 cells [6] (HEp-2, 100 µg/mL) was “increase”. The “procaspase 3 mRNA expression” value with caspase 3 is listed as “quite reduced”. For the same molecule, the “procaspase 7 mRNA expression” value in the data set with caspase 7 is given as “quite reduced”. For the same molecule, the “procaspase 8 mRNA production” value with caspase 8 is “inhibited”. For the same molecule, the “mRNA expression of caspase 9” value in the data set with caspase 9 was “inhibited”. The NOS2 expression result with NOS2 is “reduced”.

In the case of `Cc1cc(C(=O)/C=C/c2ccc3cccccc2-3)c2cccccc1-2` [Compound 10, (E)-3-(Azulen-1-yl)-1-(3-methylazulen-1-yl)prop-2-en-1-one], the MIC was 625 µg/mL (≈ 1940 µM) in [1], 625 µg/mL (≈ 1940 µM) in data set [2], 1250 µg/mL (≈ 3880 µM) in [3] and 312 µg/mL (≈ 968 µM) in [4]. Also, the Aexp in data set [3] was 0.100. Also, the minimal effective concentration in the data set on Candida parapsilosis came out at 312 µg/mL; in the data set with Escherichia coli, 625 µg/mL; in the data set on Pseudomonas aeruginosa, 625 µg/mL; in the data set on Staphylococcus aureus, 1250 µg/mL. Also, in [5], the IC50 at 48 h was 4.95 µg/mL (≈ 15.4 µM). Also, the “cytotoxicity” value in the data set with HEp-2 cells [7] is reported as “most toxic”. Further, in the data set on HEp-2 cells [6] (HEp-2, starting from 50 µg/mL), the “effect on G2/M phase” value is listed as “increase”. In addition, the “procaspase 3 mRNA expression” value in the data set on caspase 3 was “quite reduced”. The “procaspase 7 mRNA expression” value with caspase 7 is on record as “quite reduced”. In the data set on caspase 8, the “procaspase 8 mRNA production” value is listed as “inhibited”. The “mRNA expression of caspase 9” value in the data set with caspase 9 is “inhibited”.

Take `O=C(/C=C/c1ccc2cccccc1-2)c1ccc2cccccc1-2` [Compound 6, (E)-1,3-Di(azulen-1-yl)prop-2-en-1-one]: the MIC in data set [1] was 625 µg/mL (≈ 2030 µM); in data set [2], 625 µg/mL (≈ 2030 µM); in data set [3] it was 625 µg/mL (≈ 2030 µM); in data set [4], 156 µg/mL (≈ 506 µM). Moreover, in [3], the Aexp is given as 0.401. The minimal effective concentration came out at 156 µg/mL in the data set on Candida parapsilosis, 625 µg/mL with Escherichia coli, 625 µg/mL with Pseudomonas aeruginosa and 625 µg/mL in the data set with Staphylococcus aureus. The same molecule yielded an MBEC in the data set on biofilm formation of 0.156 to 0.625 mg/mL. In addition, the IC50 at 48 h in data set [5] amounted to 78.6 µg/mL (≈ 255 µM). Moreover, the “cytotoxicity” value with HEp-2 cells [7] is recorded as “low toxicity”.
